These results are taken from PubChem BioAssay AID1918991 (Molecular Pharmacology Branch, DTP, NCI, 2023).
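Further: luminescent signal used as a stand-in for viable cell amount; spheroids exposed to compounds for seven days before the viability read; 100% = DMSO vehicle control wells.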

The test system of one experiment is 186277-243-T-J2-PDC complex spheroid growth. The experiment can be described thus: Anticancer human tumor 186277-243-T-J2-PDC patient-derived colon adenocarcinoma cell line growth inhibition [AhR]. The conditions noted are these: second compound 1 µM; first compound 0.01 µM; hits give low values. An outline of the steps: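 Complex tumor spheroids co-cultured with HUVEC and human MSC stroma; AhR antagonists tested in combination with standard-of-care and investigational agents. Top concentration at or near clinical Cmax (else 10 microM), half-log dilutions; growth expressed as percent test/control.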
For the compound `CC1COCCN1c1cc(-c2ccnn2C)c2ccnc(-c3ccn[nH]3)c2n1` (centres undefined) + Cc1ccccc1N=Nc1ccc(NC(=O)c2ccnn2C)c(C)c1, the viability, T/C was 106%.

Turning to `Nc1ncn(C2CC(O)C(CO)O2)c(=O)n1` (centres undefined) + Cc1cncc(-c2nc(NCCc3c[nH]c4ccccc34)c3ncn(C(C)C)c3n2)c1, the viability, T/C was 104%.

Still in this experiment, the particulars now being: second compound 1 µM; first compound 0.0316 µM; hits give low values.
With `CC(C)c1c(-c2ccccc2)nc2c(C#N)c[nH]n2c1=O` + Cc1ccccc1N=Nc1ccc(NC(=O)c2ccnn2C)c(C)c1, the viability, T/C is 98.9%.

On to `CC1COCCN1c1cc(-c2ccnn2C)c2ccnc(-c3ccn[nH]3)c2n1` (centres undefined) + Cc1ccccc1N=Nc1ccc(NC(=O)c2ccnn2C)c(C)c1, for which the viability, T/C is 100%.

In the case of `COc1ccc([C@@H](O)c2cc(-c3ncnc4cc(N5CCOCC5)ccc34)c(F)cc2Cl)nn1` + Cc1ccccc1N=Nc1ccc(NC(=O)c2ccnn2C)c(C)c1, the viability, T/C is 96.5%.

For `COc1cccc2c1C(=O)c1c(O)c3c(c(O)c1C2=O)CC(O)(C(=O)CO)CC3OC1CC(N)C(O)C(C)O1` (centres undefined) + Cc1cncc(-c2nc(NCCc3c[nH]c4ccccc34)c3ncn(C(C)C)c3n2)c1, the viability, T/C was 93.2%.

For `Nc1ncn(C2CC(O)C(CO)O2)c(=O)n1` (centres undefined) + Cc1cncc(-c2nc(NCCc3c[nH]c4ccccc34)c3ncn(C(C)C)c3n2)c1, the viability, T/C is 99.9%.

Staying with this experiment, now noted: second compound 1 µM; first compound 0.1 µM; hits give low values.
On to `CC(C)c1c(-c2ccccc2)nc2c(C#N)c[nH]n2c1=O` + Cc1ccccc1N=Nc1ccc(NC(=O)c2ccnn2C)c(C)c1, for which the viability, T/C was 106%.

For the compound `CC1COCCN1c1cc(-c2ccnn2C)c2ccnc(-c3ccn[nH]3)c2n1` (centres undefined) + Cc1ccccc1N=Nc1ccc(NC(=O)c2ccnn2C)c(C)c1, the viability, T/C is 44.1%.

Consider `COc1ccc([C@@H](O)c2cc(-c3ncnc4cc(N5CCOCC5)ccc34)c(F)cc2Cl)nn1` + Cc1ccccc1N=Nc1ccc(NC(=O)c2ccnn2C)c(C)c1, for which the viability, T/C is 101%.

Regarding `COc1cccc2c1C(=O)c1c(O)c3c(c(O)c1C2=O)CC(O)(C(=O)CO)CC3OC1CC(N)C(O)C(C)O1` (centres undefined) + Cc1cncc(-c2nc(NCCc3c[nH]c4ccccc34)c3ncn(C(C)C)c3n2)c1, the viability, T/C was 71.3%.

Turning to `Nc1ncn(C2CC(O)C(CO)O2)c(=O)n1` (centres undefined) + Cc1cncc(-c2nc(NCCc3c[nH]c4ccccc34)c3ncn(C(C)C)c3n2)c1, the viability, T/C was 126%.

The experiment is the same for the next values; noted with them: second compound 1 µM; first compound 0.316 µM; hits give low values.
Regarding `CC(C)c1c(-c2ccccc2)nc2c(C#N)c[nH]n2c1=O` + Cc1ccccc1N=Nc1ccc(NC(=O)c2ccnn2C)c(C)c1, the viability, T/C is 115%.

As for `CC1COCCN1c1cc(-c2ccnn2C)c2ccnc(-c3ccn[nH]3)c2n1` (centres undefined) + Cc1ccccc1N=Nc1ccc(NC(=O)c2ccnn2C)c(C)c1, the viability, T/C was 9.5%.

In the case of `COc1ccc([C@@H](O)c2cc(-c3ncnc4cc(N5CCOCC5)ccc34)c(F)cc2Cl)nn1` + Cc1ccccc1N=Nc1ccc(NC(=O)c2ccnn2C)c(C)c1, the viability, T/C was 101%.

Turning to `COc1cccc2c1C(=O)c1c(O)c3c(c(O)c1C2=O)CC(O)(C(=O)CO)CC3OC1CC(N)C(O)C(C)O1` (centres undefined) + Cc1cncc(-c2nc(NCCc3c[nH]c4ccccc34)c3ncn(C(C)C)c3n2)c1, the viability, T/C was 21.2%.

Take `Nc1ncn(C2CC(O)C(CO)O2)c(=O)n1` (centres undefined) + Cc1cncc(-c2nc(NCCc3c[nH]c4ccccc34)c3ncn(C(C)C)c3n2)c1: the viability, T/C was 156%.

Staying with this experiment, now noted: second compound 1 µM; first compound 1 µM; hits give low values.
With `CC(C)c1c(-c2ccccc2)nc2c(C#N)c[nH]n2c1=O` + Cc1ccccc1N=Nc1ccc(NC(=O)c2ccnn2C)c(C)c1, the viability, T/C is 96.4%.

Consider `CC1COCCN1c1cc(-c2ccnn2C)c2ccnc(-c3ccn[nH]3)c2n1` (centres undefined) + Cc1ccccc1N=Nc1ccc(NC(=O)c2ccnn2C)c(C)c1, for which the viability, T/C was 7.1%.

For `COc1ccc([C@@H](O)c2cc(-c3ncnc4cc(N5CCOCC5)ccc34)c(F)cc2Cl)nn1` + Cc1ccccc1N=Nc1ccc(NC(=O)c2ccnn2C)c(C)c1, the viability, T/C was 98%.

Consider `COc1cccc2c1C(=O)c1c(O)c3c(c(O)c1C2=O)CC(O)(C(=O)CO)CC3OC1CC(N)C(O)C(C)O1` (centres undefined) + Cc1cncc(-c2nc(NCCc3c[nH]c4ccccc34)c3ncn(C(C)C)c3n2)c1, for which the viability, T/C is 0.08%.

Consider `Nc1ncn(C2CC(O)C(CO)O2)c(=O)n1` (centres undefined) + Cc1cncc(-c2nc(NCCc3c[nH]c4ccccc34)c3ncn(C(C)C)c3n2)c1, for which the viability, T/C was 157%.

The experiment is the same for the next values; noted with them: second compound 1 µM; first compound 3.16 µM; hits give low values.
On to `CC(C)c1c(-c2ccccc2)nc2c(C#N)c[nH]n2c1=O` + Cc1ccccc1N=Nc1ccc(NC(=O)c2ccnn2C)c(C)c1, for which the viability, T/C is 98.3%.

In the case of `COc1ccc([C@@H](O)c2cc(-c3ncnc4cc(N5CCOCC5)ccc34)c(F)cc2Cl)nn1` + Cc1ccccc1N=Nc1ccc(NC(=O)c2ccnn2C)c(C)c1, the viability, T/C was 104%.

On to `COc1cccc2c1C(=O)c1c(O)c3c(c(O)c1C2=O)CC(O)(C(=O)CO)CC3OC1CC(N)C(O)C(C)O1` (centres undefined) + Cc1cncc(-c2nc(NCCc3c[nH]c4ccccc34)c3ncn(C(C)C)c3n2)c1, for which the viability, T/C is 0.32%.

Staying with this experiment, now noted: second compound 1 µM; first compound 10 µM; hits give low values.
`CC(C)c1c(-c2ccccc2)nc2c(C#N)c[nH]n2c1=O` + Cc1ccccc1N=Nc1ccc(NC(=O)c2ccnn2C)c(C)c1: the viability, T/C is 104%.

Consider `COc1ccc([C@@H](O)c2cc(-c3ncnc4cc(N5CCOCC5)ccc34)c(F)cc2Cl)nn1` + Cc1ccccc1N=Nc1ccc(NC(=O)c2ccnn2C)c(C)c1, for which the viability, T/C is 62.7%.

Regarding `COc1cccc2c1C(=O)c1c(O)c3c(c(O)c1C2=O)CC(O)(C(=O)CO)CC3OC1CC(N)C(O)C(C)O1` (centres undefined) + Cc1cncc(-c2nc(NCCc3c[nH]c4ccccc34)c3ncn(C(C)C)c3n2)c1, the viability, T/C was 0.26%.

The same experiment, now with this note: second compound 3.16 µM; first compound 0.00316 µM; hits give low values.
As for `CC1COCCN1c1cc(-c2ccnn2C)c2ccnc(-c3ccn[nH]3)c2n1` (centres undefined) + Cc1ccccc1N=Nc1ccc(NC(=O)c2ccnn2C)c(C)c1, the viability, T/C was 97.7%.

`Nc1ncn(C2CC(O)C(CO)O2)c(=O)n1` (centres undefined) + Cc1cncc(-c2nc(NCCc3c[nH]c4ccccc34)c3ncn(C(C)C)c3n2)c1: the viability, T/C is 114%.

The same experiment, now with this note: second compound 3.16 µM; first compound 0.01 µM; hits give low values.
As for `CC1COCCN1c1cc(-c2ccnn2C)c2ccnc(-c3ccn[nH]3)c2n1` (centres undefined) + Cc1ccccc1N=Nc1ccc(NC(=O)c2ccnn2C)c(C)c1, the viability, T/C is 104%.

Take `Nc1ncn(C2CC(O)C(CO)O2)c(=O)n1` (centres undefined) + Cc1cncc(-c2nc(NCCc3c[nH]c4ccccc34)c3ncn(C(C)C)c3n2)c1: the viability, T/C is 113%.

Staying with this experiment, now noted: second compound 3.16 µM; first compound 0.0316 µM; hits give low values.
Consider `CC(C)c1c(-c2ccccc2)nc2c(C#N)c[nH]n2c1=O` + Cc1ccccc1N=Nc1ccc(NC(=O)c2ccnn2C)c(C)c1, for which the viability, T/C is 95.2%.

As to `CC1COCCN1c1cc(-c2ccnn2C)c2ccnc(-c3ccn[nH]3)c2n1` (centres undefined) + Cc1ccccc1N=Nc1ccc(NC(=O)c2ccnn2C)c(C)c1, the viability, T/C was 92.6%.

In the case of `COc1ccc([C@@H](O)c2cc(-c3ncnc4cc(N5CCOCC5)ccc34)c(F)cc2Cl)nn1` + Cc1ccccc1N=Nc1ccc(NC(=O)c2ccnn2C)c(C)c1, the viability, T/C was 97.1%.

As to `COc1cccc2c1C(=O)c1c(O)c3c(c(O)c1C2=O)CC(O)(C(=O)CO)CC3OC1CC(N)C(O)C(C)O1` (centres undefined) + Cc1cncc(-c2nc(NCCc3c[nH]c4ccccc34)c3ncn(C(C)C)c3n2)c1, the viability, T/C was 83.5%.

As to `Nc1ncn(C2CC(O)C(CO)O2)c(=O)n1` (centres undefined) + Cc1cncc(-c2nc(NCCc3c[nH]c4ccccc34)c3ncn(C(C)C)c3n2)c1, the viability, T/C is 111%.

Staying with this experiment, now noted: second compound 3.16 µM; first compound 0.1 µM; hits give low values.
On to `CC(C)c1c(-c2ccccc2)nc2c(C#N)c[nH]n2c1=O` + Cc1ccccc1N=Nc1ccc(NC(=O)c2ccnn2C)c(C)c1, for which the viability, T/C is 108%.

As to `CC1COCCN1c1cc(-c2ccnn2C)c2ccnc(-c3ccn[nH]3)c2n1` (centres undefined) + Cc1ccccc1N=Nc1ccc(NC(=O)c2ccnn2C)c(C)c1, the viability, T/C is 35.9%.

With `COc1ccc([C@@H](O)c2cc(-c3ncnc4cc(N5CCOCC5)ccc34)c(F)cc2Cl)nn1` + Cc1ccccc1N=Nc1ccc(NC(=O)c2ccnn2C)c(C)c1, the viability, T/C was 89.4%.

As to `COc1cccc2c1C(=O)c1c(O)c3c(c(O)c1C2=O)CC(O)(C(=O)CO)CC3OC1CC(N)C(O)C(C)O1` (centres undefined) + Cc1cncc(-c2nc(NCCc3c[nH]c4ccccc34)c3ncn(C(C)C)c3n2)c1, the viability, T/C was 59.9%.

Turning to `Nc1ncn(C2CC(O)C(CO)O2)c(=O)n1` (centres undefined) + Cc1cncc(-c2nc(NCCc3c[nH]c4ccccc34)c3ncn(C(C)C)c3n2)c1, the viability, T/C is 118%.

The same experiment, now with this note: second compound 3.16 µM; first compound 0.316 µM; hits give low values.
As for `CC(C)c1c(-c2ccccc2)nc2c(C#N)c[nH]n2c1=O` + Cc1ccccc1N=Nc1ccc(NC(=O)c2ccnn2C)c(C)c1, the viability, T/C was 94.3%.

On to `CC1COCCN1c1cc(-c2ccnn2C)c2ccnc(-c3ccn[nH]3)c2n1` (centres undefined) + Cc1ccccc1N=Nc1ccc(NC(=O)c2ccnn2C)c(C)c1, for which the viability, T/C was 9.1%.
